23 compounds from patent US6369246B2, “Synthesis and pharmaceuticals of novel 9-substituted-1, 5-dichloroanthracene analogs” (Dr. Keith Chan, GloboAsia, LLC, priority 1999, dated 2002) can be followed below.

For test [1], the system named is Chinese hamster ovary (CHO) cells. The experiment in a line: Growth inhibition assay, CHO cells. In kind it is cell-based. The settings on record: 48 hours, cell counting, read-out: IC50 CHO (concentration required to inhibit cell growth by 50% relative to controls). The procedure:
(§1) Growth inhibition was measured in three human carcinoma cell lines (GBK KB and CHO) using a previously described […] assay. Hwang, J.-M. et al., Chin. Med. J (Taipei), 51, 166-175 (1993). Human oral epidermoid carcinoma cells (KB cell line), human cervical carcinoma cells of ME 180 (GBM8401) and Chinese hamster ovary (CHO) cells grown in plateau phase were used in all experiments. Each cell line was further divided into control and experimental groups, respectively.
(§2) Stock solutions of the test compounds were prepared in DMSO and diluted with DMEM to give a final concentration of DMSO of 0.2%. Controls were performed with DMSO or with medium alone. The medium was removed and each well was rinsed with 100 μL PBS 48 hours after addition of the test compound to the culture. The cells were then incubated with sterile 0.5% trypsin, 0.2% EDTA in PBS for 20 minutes at 37° C. The detached cells from each well were suspended in DMEM and dispersed into single cells by gentle pipeting through an Eppendorf pipette and cell growth was determined directly by counting the cells in a Neubauer counting chamber using phase contrast microscopy. Inhibition was calculated by comparison of the mean values of the test compound (N=3) with the control (N=6−8) activity: (1-test compound/control) ×100. Inhibition was statistically significant compared to that of control (Student's t Test; P=0.05). IC50 values (concentration required to inhibit cell growth by 50%) were determined for each agent which was derived by interpolation of a log inhibitor concentration versus response plot using four or more different concentrations of the compound spanning the 50% inhibition point.

The test system of test [2] is GBM cell line (human cervical carcinoma cells of ME 180 (GBM8401)). The experiment in a line: Growth inhibition assay, GBM cell line. The test is classed as cell-based. The settings on record: cell counting, read-out: IC50 GBM (concentration required to inhibit cell growth by 50% relative to controls). How it is done: as §1, §2
Test [3] concerns iron-induced lipid peroxidation in rat brain homogenates. The test can be described thus: Lipid peroxidation assay (TBA). The test is classed as biochemical, Wistar rats. As to conditions: ferrous ion 200 μM, 37° C. 30 min; for % Inhibition (1 μM), relative percentage of inhibition: 1 μM compound; for % Inhibition (10 μM), relative percentage of inhibition: 10 μM compound. How it is done: Rat brain homogenate was prepared from the brains of freshly killed Wistar rats and its peroxidation. In the presence of iron ions was measured by the thiobarbituric acid (TBA). Teng, C. M. et al., Eur. J. Pharmacol., 303, 129-139 (1996). Tetramethoxypropane was used as a standard, and the results were expressed as nanomoles of malondialdehyde equivalents per milligram of protein of rat brain homogenates. In brief, whole brain tissue, excluding the cerebellum, was washed and homogenized in 10 volumes of ice-cold Krebs buffer (10 mM N-2 hydroxyethyl-piperazine-N′-2-ethanesulfonic acid (Hepes), 10 mM glucose, 140 mM NaCl, 3.6 mM KCl, 1.5 mM CaCl2, 1.4 mM KH2PO4, 0.7 mM MgSO4, pH 7.4) using a glass Dounce homogenizer. […] The reaction mixture with test compounds or vehicle was incubated for 10 min, then stimulated by addition of ferrous ion (200 μM freshly prepared), and maintained at 37° C. for 30 min. The reactions were terminated by adding […] of ice-cold trichloroacetic acid solution (4% (w/v) in 0.3 N HCl) and […], of thiobarbituric acid-reactive substance reagent (0.5% (w/v) thiobarbituric acid in 50% (v/v) acetic acid). After boiling for 15 min, the samples were cooled and extracted with n-butanol. The extent of lipid peroxidation was estimated as thiobarbituric acid-reactive substances and was read at 532 nm in a spectrophotometer (Shimadzu UV-160).

Test [4] concerns Human oral epidermoid carcinoma cells (KB cell line). The test can be described thus: Growth inhibition assay, KB cell line. In kind it is cell-based. The settings on record: 48 hours, cell counting, read-out: IC50 KB (concentration required to inhibit cell growth by 50% relative to controls). How it is done: as §1, §2

Read-outs that look alike come from different tables or passages of the source.

For `O=C(CCCBr)Oc1c2cccc(Cl)c2cc2cccc(Cl)c12` [Compound 3i], the IC50 in test [1] worked out at 110 µM; in test [2] (48 hours), 205 µM; in test [4] it was 457 µM. Also, in test [3], the “% Inhibition (1 μM), relative percentage of inhibition” value was 38.1%. The “% Inhibition (10 μM), relative percentage of inhibition” value in test [3] amounted to 100%.
Consider `Cc1c(C)c2c(c(C)c1O)CC[C@@](C)(CCC[C@H](C)CCC[C@H](C)CCCC(C)C)O2` [(+)-a-Tocopherol, reference compound], for which, in test [3], the “% Inhibition (1 μM), relative percentage of inhibition” value is 61.6% and the “% Inhibition (10 μM), relative percentage of inhibition” value is on record as 100%.
As to `Cc1cccc(C(=O)Oc2c3cccc(Cl)c3cc3cccc(Cl)c23)c1` [Compound 3n, 1,5-Dichloro-9-(m-toluyloxy)-anthracene], the IC50 was 1200 µM in test [1], 398 µM in test [2] (48 hours) and 111 µM in test [4]. In test [3], the “% Inhibition (1 μM), relative percentage of inhibition” value was 10.9%. Besides, in test [3], the “% Inhibition (10 μM), relative percentage of inhibition” value is 22.4%.
Turning to `CCCCCC(=O)Oc1c2cccc(Cl)c2cc2cccc(Cl)c12` [Compound 3k], the IC50 is 55.1 µM in test [1], 1.2 µM in test [2] (48 hours) and 317 µM in test [4]. In addition, the “% Inhibition (1 μM), relative percentage of inhibition” value in test [3] is on record as 12.2%. Moreover, the “% Inhibition (10 μM), relative percentage of inhibition” value in test [3] was 17.2%.
Regarding `CC(C)C(=O)Oc1c2cccc(Cl)c2cc2cccc(Cl)c12` [Compound 3e], the IC50 in test [1] is 1310 µM; in test [2] (48 hours), 196 µM; in test [4] it was 431 µM. Besides, the “% Inhibition (1 μM), relative percentage of inhibition” value in test [3] is 1.5%. Besides, the “% Inhibition (10 μM), relative percentage of inhibition” value in test [3] is 28.6%.
With `O=C(CCc1ccccc1)Oc1c2cccc(Cl)c2cc2cccc(Cl)c12` [Compound 3w], the IC50 was determined as 1160 µM in test [1], 1730 µM in test [2] (48 hours) and 936 µM in test [4]. Besides, the “% Inhibition (1 μM), relative percentage of inhibition” value in test [3] came out at 29.3%. Moreover, the “% Inhibition (10 μM), relative percentage of inhibition” value in test [3] is recorded as 36.6%.
In the same order, the values of `O=C(CBr)Oc1c2cccc(Cl)c2cc2cccc(Cl)c12` [Compound 3b] are 1010 µM, 19.2 µM, 136 µM, 100% and 100%.
With `CCCC(=O)Oc1c2cccc(Cl)c2cc2cccc(Cl)c12` [Compound 3h], the IC50 in test [1] is 0.1 µM; in test [2] (48 hours) it was 572 µM; in test [4], 544 µM. Moreover, the “% Inhibition (1 μM), relative percentage of inhibition” value in test [3] is on record as 11.8%. Further, the “% Inhibition (10 μM), relative percentage of inhibition” value in test [3] is reported as 17.7%.
Consider `CCC(=O)Oc1c2cccc(Cl)c2cc2cccc(Cl)c12` [Compound 3d], for which the IC50 in test [1] was found to be 1160 µM; in test [2] (48 hours) it was 17.2 µM; in test [4], 471 µM. The “% Inhibition (1 μM), relative percentage of inhibition” value in test [3] is listed as 100%. The “% Inhibition (10 μM), relative percentage of inhibition” value in test [3] was 100%.
In the case of `O=C(CCl)Oc1c2cccc(Cl)c2cc2cccc(Cl)c12` [Compound 3c], the IC50 was 1.2 µM in test [1], 106 µM in test [2] (48 hours) and 528 µM in test [4]. In addition, the “% Inhibition (1 μM), relative percentage of inhibition” value in test [3] was 100%. The “% Inhibition (10 μM), relative percentage of inhibition” value in test [3] was determined as 100%.
For the compound `CO[C@@]12[C@H](COC(N)=O)C3=C(C(=O)C(C)=C(N)C3=O)N1C[C@@H]1N[C@@H]12` [Mitomycin-C, reference compound], the IC50 worked out at 2120 µM in test [1] and 1900 µM in test [2] (48 hours).
With `O=C(Oc1c2cccc(Cl)c2cc2cccc(Cl)c12)C(Cl)Cl` [Compound 3g], the figures for the IC50 in test [1], in test [2] (48 hours) and in test [4] were 1280 µM, 1.4 µM and 528 µM, respectively. Moreover, the “% Inhibition (1 μM), relative percentage of inhibition” value in test [3] stood at 61.7%. In test [3], the “% Inhibition (10 μM), relative percentage of inhibition” value amounted to 100%.
Take `O=C(Oc1c2cccc(Cl)c2cc2cccc(Cl)c12)c1cccc(Cl)c1` [Compound 3p]: the IC50 in test [2] (48 hours) was determined as 11.7 µM. For the same compound, in test [3], the “% Inhibition (1 μM), relative percentage of inhibition” value amounted to 8.6% and the “% Inhibition (10 μM), relative percentage of inhibition” value amounted to 30.6%. The IC50 in test [4] worked out at 1050 µM.
As to `CC(Cl)C(=O)Oc1c2cccc(Cl)c2cc2cccc(Cl)c12` (stereo not shown) [Compound 3f], the IC50 in test [1] amounted to 955 µM; in test [2] (48 hours), 126 µM; in test [4], 374 µM. For the same compound, the “% Inhibition (1 μM), relative percentage of inhibition” value in test [3] amounted to 9.8%. Further, the “% Inhibition (10 μM), relative percentage of inhibition” value in test [3] is 60.6%.
As for `O=C(Oc1c2cccc(Cl)c2cc2cccc(Cl)c12)c1ccccc1` [Compound 3L, 1,5-Dichloro-9-benzoyloxy-anthracene], the IC50 in test [1] (Cricetulus griseus) was 1440 µM; in test [2] (Homo sapiens, ME-180, 48 hours) it was 226 µM; in test [4] (Homo sapiens), 813 µM. Further, the “% Inhibition (1 μM), relative percentage of inhibition” value in test [3] worked out at 4.6%. The “% Inhibition (10 μM), relative percentage of inhibition” value in test [3] came to 14.0%.
In the case of `CC(=O)Oc1c2cccc(Cl)c2cc2cccc(Cl)c12` [Compound 3a, 1,5-Dichloro-9-acetyloxy-anthracene], the IC50 came out at 114 µM in test [1] (Cricetulus griseus); 48.1 µM in test [2] (Homo sapiens, ME-180, 48 hours); 473 µM in test [4] (Homo sapiens). The “% Inhibition (1 μM), relative percentage of inhibition” value in test [3] was 25.5%. In addition, the “% Inhibition (10 μM), relative percentage of inhibition” value in test [3] is reported as 34.4%.
For the compound `CN(Cc1cnc2nc(N)nc(N)c2n1)c1ccc(C(=O)N[C@@H](CCC(=O)O)C(=O)O)cc1` [Methotrexate, reference compound], the IC50 stood at 9140 µM in test [1] (Cricetulus griseus); 9290 µM in test [2] (Homo sapiens, ME-180, 48 hours); 47200 µM in test [4] (Homo sapiens).
For the compound `O=C(Oc1c2cccc(Cl)c2cc2cccc(Cl)c12)c1ccc(Cl)cc1Cl` [Compound 3u], the IC50 in test [1] was 1180 µM; in test [2] (48 hours) it was 87.7 µM; in test [4] it was 108 µM. Moreover, the “% Inhibition (1 μM), relative percentage of inhibition” value in test [3] is listed as 1.7%. In addition, in test [3], the “% Inhibition (10 μM), relative percentage of inhibition” value was determined as 16.0%.
On to `COc1cc(Cl)ccc1C(=O)Oc1c2cccc(Cl)c2cc2cccc(Cl)c12` [Compound 3t], for which the values for the IC50 in test [1], in test [2] (48 hours) and in test [4] were 114 µM, 10.8 µM and 818 µM, respectively. Also, in test [3], the “% Inhibition (1 μM), relative percentage of inhibition” value was 0%. Besides, in test [3], the “% Inhibition (10 μM), relative percentage of inhibition” value stood at 10.3%.
On to `COc1cccc2c1C(=O)c1c(O)c3c(c(O)c1C2=O)C[C@@](O)(C(=O)CO)C[C@@H]3O[C@H]1C[C@H](N)[C@H](O)[C@H](C)O1` [Doxorubicin, reference compound], for which the IC50 in test [1] (Cricetulus griseus) was 499 µM; in test [2] (Homo sapiens, ME-180, 48 hours), 599 µM; in test [4] (Homo sapiens), 420 µM.
As to `O=C(CCCCl)Oc1c2cccc(Cl)c2cc2cccc(Cl)c12` [Compound 3j], the IC50 in test [1] came to 1170 µM; in test [2] (48 hours), 1.1 µM; in test [4], 11 µM. Further, in test [3], the “% Inhibition (1 μM), relative percentage of inhibition” value is recorded as 10.0%. Also, the “% Inhibition (10 μM), relative percentage of inhibition” value in test [3] is 29.0%.
`O=C(Cc1ccccc1)Oc1c2cccc(Cl)c2cc2cccc(Cl)c12` [Compound 3v]: the IC50 turned out to be 1190 µM in test [1], 110 µM in test [2] (48 hours) and 12.6 µM in test [4]. For the same compound, the “% Inhibition (1 μM), relative percentage of inhibition” value in test [3] amounted to 13.7%. Further, in test [3], the “% Inhibition (10 μM), relative percentage of inhibition” value is 32.8%.
On to “1,5-Dichloro-9-(p-toluoxy)-anthracene [Compound 3o]”, for which, in test [2] (48 hours), the IC50 is 11.2 µM. For the same compound, in test [3], the “% Inhibition (1 μM), relative percentage of inhibition” value was determined as 2.9% and the “% Inhibition (10 μM), relative percentage of inhibition” value turned out to be 25.6%. The IC50 in test [4] worked out at 865 µM.
